One assay concerns spleen cells of NOD mice. Briefly: Proliferative recall response of spleen cells to β-cell antigens, by age. It is filed as cell-based. The method, then: NOD (Taconic farms) and BALB/c mice (Jackson Laboratories) were kept under specific pathogen free conditions. The mice were sacrificed at the ages indicated and the spleen cells were tested directly ex vivo for their proliferative recall response to antigen. Single cell suspensions of spleen cells were plated at 1×10^6 cells per well in 96 well microtiter plates in 200 μl serum free HL-1 medium (Ventrex) that was supplemented with 2 mM glutamine with or without 10 μg/ml antigen (or 7 μM peptide) in triplicate cultures. During the last 16 h of the 72 h culture period, 1 μCi[^3 H]-thymidine was added per well. Incorporation of label was measured by liquid scintillation counting.
Both human GAD65 (Bu, et al., Proc. Natl. Acad. Sci., 89:2115-2119, 1992) and E. coli β-gal (control) were purified from recombinant bacteria on the basis of a hexahistidine tag which allows their rapid affinity purification by metal affinity chromatography (Hochuli, et al., Bio/Technology, 6:1321-1325, 1988). Bovine CPH was the generous gift of L. Fricker (Albert Einstein Col. Med.) and human insulin was purchased from Eli Lilly.

Assay [1] deals with female NOD mice. Description: Insulitis score after tolerance induction. In kind it is in vivo. The note with it: examined at 12 weeks. The method, then: (§1) 1. In these experiments female NOD mice were intravenously injected at 3 weeks of age with 50 μg GAD, μ-galactosidase, mycobacterial hsp65 (m-hsp) or 0.1 μg of the immunodominant hsp peptide (hsp-p), in PBS. At 12 weeks of age, mice were examined for insulitis and autoantigen reactive T-cells. At this age both indications are established in untreated NOD mice. Pancreatic tissue sections were stained by immunoperoxidase techniques for insulin and were counterstained with hematoxylin. Insulitis was scored in a blinded manner by examining 54 to 87 islets on 5 interrupted tissue sections from each pancreas. Proliferative splenic T-cell responses induced by various antigens were performed as described above in Example 4. Data in Table 8 are expressed as the average [^3 H]-thymidine label (cpm) incorporated in triplicate cultures.
2. In a second set of experiments neonatal female NOD mice were injected intraperitoneally IFA with peptide 11, a mixture of peptides 34 and 35 plus IFA, or with IFA alone and at 12 weeks of age the mice were examined for insulitis and autoantigen reactive T-cells as in Example 6.1. Proliferative splenic T-cell responses induced by the various antigens were performed as in Example 4, and data in Table 8B are expressed as the average [^3 H]-thymidine label (cpm) incorporated in triplicate cultures.
3. In a third set of experiments female NOD mice were intravenously injected at three weeks of age with peptide 11 (control), a mixture of peptides 34 and 35 plus IFA, or with HEL peptides and at 12 weeks of age the mice were examined for insulitis and autoantigen reactive T-cells as in Example 6.1. Proliferative splenic T-cell responses induced by the various antigens were performed as in Example 4, and data in Table 8C are expressed as the average [^3 H]-thymidine label (cpm) incorporated in triplicate cultures.

The test system of assay [2] is female NOD mice. Briefly: Long-term diabetes incidence, insulitis and βCA reactive T cells after GAD tolerization. In kind it is in vivo. As to the method:
as §1
Five GAD treated mice were sacrificed at 30 weeks of age.

[3] abbreviates: five treated mice sacrificed at 30 weeks.

For the substance “GAD: human GAD65 purified from recombinant bacteria on the basis of a hexahistidine tag”, in the assay with spleen cells of NOD mice (<4 or >16 week old NOD or control BALB/c or (NOD/BALB/c)F1 spleen cells), the “T cell proliferation in non-diseased spleen cells” value is reported as “did not induce T cell proliferation”. For the same substance, in the assay on spleen cells of NOD mice (female NOD mice, 10 μg/ml antigen or 7 μM peptide, 72 h culture (FIG. 8)), the “age at which the proliferative T-cell response to the antigen appeared” value stood at 4 weeks. Further, in the assay with female NOD mice [1] (Table 8A: i.v. injection at 3 weeks of age in PBS, scale 0-4, mean ± SE), the “Insulitis Score” value was 0.1 ± 0.1. Also, the “insulitis score of the completely tolerized mice” value with female NOD mice [1] (i.v. at 3 weeks) turned out to be 0.0. In the assay with female NOD mice [2] (setting [3]), the “insulitis at 30 weeks of age” value was “four mice were completely free of insulitis” and the “βCA reactive T cells at 30 weeks of age” value is given as “free of detectable βCA reactive T cells”. In addition, the “glucose levels of treated mice” value with female NOD mice [2] (n=17, presently 37 weeks old) was “normal glucose levels”.

The values are drawn from patent US5998366A, “Method for ameliorating glutamic acid decarboxylase associated autoimmune disorders” (The Regents of the University of California, priority 1997, dated 1999).
